Reference: a melting point compilation (Tetko et al.)

CCOC(=O)C1=C(C)NC(=O)NC1c1cccc(Cl)c1Cl (configuration not stated)
melting point: 243 °C

O=[N+]([O-])c1ccc(/C(Cl)=C\c2cccc(/C=C(/Cl)c3ccc([N+](=O)[O-])cc3[N+](=O)[O-])c2)c([N+](=O)[O-])c1
melting point: 215 °C

Cc1c(Cl)cccc1C#N
melting point: 21.5 °C

O=C(Cl)c1ccc2c(c1)OCCCO2
melting point: 29 to 33 °C

Cc1cc(C)c2c(=O)n(-c3ccc(Cl)cc3)c(S)nc2n1
melting point: 324 to 326 °C

CCCCCCCCC(=O)OC(=O)CCCCCCCC
melting point: 14.8 °C

c1ccc(CN2CCc3c([nH]c4ccccc34)C2)cc1
melting point: 165 to 170 °C

O=CC(Cl)(Cl)Cl
melting point: -57.5 °C

CCCCCCCOO
melting point: 35.5 °C

O=C1C2CCCC1CCC2
melting point: 153 to 157 °C

O=Cc1sc(-c2ccccc2)nc1-c1ccccc1
melting point: 121 to 123 °C

CC1CCC(C(C)C)C(OC(=O)C#Cc2ccccc2)C1 (configuration not stated)
melting point: 64 °C

N[C@H](c1ccccc1)[C@H](N)c1ccccc1
melting point: 81 to 84 °C

O=C1c2ccccc2C(=O)c2c(NCCO)ccc(NCCO)c21
melting point: 248 °C

Cc1ccc(C(C)C(=O)O)cc1 (configuration not stated)
melting point: 41 °C

CC1OC(=O)C(C)C1CC(O)C(C)(O)C1CCC2(O)C3=CC(=O)C4CC(O)C(O)CC4(C)C3CCC12C (configuration not stated)
melting point: 158 to 160 °C

CCCCCCCCCCCCCC=CC(O)C(CO)NC(=O)CCCCCCCCCCCCCCC (configuration not stated)
melting point: 94 to 95 °C

Cn1c(/C(C#N)=C/c2ccc(F)cc2)nc2ccccc21
melting point: 133 °C

CC(O)C1CCC2C3CCC4CC(O)CCC4(C)C3CCC12C (configuration not stated)
melting point: 245 °C

COc1cc(C=C(C(=O)O)C(=Cc2cc(OC)c(OC)c(OC)c2)C(=O)O)cc(OC)c1OC
melting point: 229 °C

O=C(Cl)c1ccc(CCl)cc1
melting point: 29 to 33 °C

Cc1n[nH]c(C)c1-c1ccccc1C(=O)O
melting point: 256 °C

Cc1nc(O)cc(O)n1
melting point: 360 °C

Cc1nc2scc(-c3ccccc3)c2c(=O)n1NC(=O)c1ccc(Cl)cc1Cl
melting point: 290 to 292 °C

COc1cc2c(cc1C(C)C)C(=O)C2
melting point: 43 °C

CC(CCc1ccccc1)NC(C)C(O)c1ccc(O)cc1 (configuration not stated)
melting point: 112 °C

FC(F)CC(F)(F)F
melting point: -102 °C

CC(C)(C)c1cc(N)c(O)c(C(C)(C)C)c1
melting point: 161 °C

Oc1ccc2c(c1)C13CCCCC1C(C2)N(CC1CC1)CC3 (configuration not stated)
melting point: 188 °C

Cc1ccc(S(=O)(=O)N2C(C)C2c2ccccc2)cc1 (configuration not stated)
melting point: 188 to 190 °C

CC(=CCNc1ncnc2c1ncn2C1OC(CO)C(O)C1O)CO (configuration not stated)
melting point: 179 to 180 °C

NC(=O)c1cc(C(=O)CN(Cc2ccccc2)Cc2ccccc2)ccc1O
melting point: 168 °C

COc1cccc(OC)c1P(c1c(OC)cccc1OC)c1c(OC)cccc1OC
melting point: 155 °C

N#CCON=C(C#N)c1ccccc1
melting point: 55 °C

CCOC(=O)c1c(C)oc(NC(=O)Nc2ccccc2)c1C(=O)OCC
melting point: 110 to 112 °C

COc1c2occc2cc2ccc(=O)oc12
melting point: 148 °C

C#CC1(O)CCC2C3CC=C4CC(O)CCC4(C)C3CCC21C (configuration not stated)
melting point: 248 °C

COc1cc2c(cc1OC)C(=O)C(CC1CCN(Cc3ccccc3)CC1)C2 (configuration not stated)
melting point: 207 °C

CN(C)c1ccc(C2CC(c3ccc4ccccc4c3)=NN2c2ccccc2)cc1 (configuration not stated)
melting point: 186 °C

NC(=S)COc1ccccc1Cl
melting point: 116 to 117 °C

CC1(C)CC(=O)NC(=O)C1
melting point: 145 °C

CSc1ncc(CO)n1Cc1ccccc1
melting point: 109 to 111 °C

Nc1cccc(S(=O)(=O)O)c1
melting point: 300 °C

CC1(C)O[C@@H](CP(c2ccccc2)c2ccccc2)[C@@H](CP(c2ccccc2)c2ccccc2)O1
melting point: 86 to 88 °C

C=C(C)C(CC)CC
melting point: -113 °C

O=C1CCC2(CC1)OCCO2
melting point: 74 to 76 °C

O=[N+]([O-])c1ccc(NCc2ccccc2)c2nonc12
melting point: 206 to 209 °C

CC(=O)N(C(C)=O)c1cc([N+](=O)[O-])c(/C=C/c2ccccc2)c([N+](=O)[O-])c1/C=C/c1ccccc1
melting point: 175 °C

CCOC(=O)/C(C#N)=C/c1ccc(-c2ccc([N+](=O)[O-])cc2)o1
melting point: 238 °C

Cn1nc(C(=O)Cl)cc1-c1cccs1
melting point: 48 to 49 °C

CCCCCCCCCCCCCCCCCCCCCO
melting point: 68 to 71 °C

COc1ccc(C(=O)c2ccc(Cl)cc2)cc1OC
melting point: 109 °C

Nc1cccc(Cn2ccnc2)c1
melting point: 72 to 74 °C

COC(=O)c1cc(N)cc(O)c1
melting point: 124 to 126 °C

Cc1ccc(CO)cc1F
melting point: 35 °C

O=C1CCCC(=O)N1
melting point: 156 °C

CC(C)(C)OC(=O)NCc1nnc(S)n1C1CC1
melting point: 193 to 194 °C

CC(=O)n1cc(C)c2ccccc21
melting point: 65 °C

Cc1ccccc1CC(NC(=O)OCC1c2ccccc2-c2ccccc21)C(=O)O (racemic)
melting point: 157 to 164 °C

Nc1ccc(-c2ccccc2N)cc1
melting point: 54.5 °C

N=c1oc2ccccc2cc1-c1nc2ccccc2s1
melting point: 186 °C

CC1C(=CC(=O)OCCN(C)C)CCC2C1C(=O)CC1C(C)(C)C(O)CCC21C (configuration not stated)
melting point: 142 °C

CCOC(=O)C(N)=S
melting point: 63 °C

Cc1cc(C)c(CS(=O)(=O)Cc2c(C)cc(C)cc2C)c(C)c1
melting point: 297 to 300 °C

Oc1ccc2c(c1)C13CCCCC1C(C2)NCC3 (configuration not stated)
melting point: 271 °C

COc1ccc(Cl)cc1N=C=S
melting point: 58 °C

CC(=O)Nc1ccc(Br)cc1C
melting point: 160 to 163 °C

Cn1cnc2[nH]c(N)nc(=O)c21
melting point: 370 °C

CCOc1cc(C(=S)N2CCCCC2)ccc1OCc1ccccc1
melting point: 72 °C

NC(=O)c1cc(Cl)cc(Cl)c1N
melting point: 162 °C

CC1=Nc2ccccc2N=C(C)C1
melting point: 193 °C

Cl/C(=C\c1ccccc1)c1cccc2ccccc12
melting point: 117 °C

c1ccc2cc3c(cc2c1)OCCOCCOCCOCCO3
melting point: 117 to 118 °C

Cc1c(C)n(C)c2ccccc12
melting point: 18 °C

Clc1nccnc1Cl
melting point: 22.5 to 24.5 °C

COC1CC2C3(C)CCCC2(COC3=O)C2C(OC(C)=O)CC3C(C)C(=O)C12C3O (configuration not stated)
melting point: 105 °C

Cc1cc(C2(c3ccc(O)c(C)c3)OS(=O)(=O)c3ccccc32)ccc1O
melting point: 290 °C

OCc1ccc(-c2ccsc2)cc1
melting point: 152 to 154 °C

CC(C)(C)c1ccc(OCC#N)cc1
melting point: 69 °C

O=C(Cc1ccccc1)C(c1ccccc1)N1CCCCC1 (configuration not stated)
melting point: 137 °C

CCOP(=O)(OCC)Oc1c2cccc1Cc1cccc(c1O)Cc1cccc(c1OP(=O)(OCC)OCC)Cc1cccc(c1O)C2
melting point: 219 to 224 °C

FC(Cl)C(F)(F)F (configuration not stated)
melting point: -199 °C

c1ccc(-c2nc[nH]c2-c2ccccc2)cc1
melting point: 232 °C

c1ccc(CNc2ccccc2-n2c(-c3ccccc3)nc3ccccc32)cc1
melting point: 160 °C

Cc1ccc(C(F)(F)F)cc1N
melting point: 38 °C

NNc1ncc(C(=O)OCc2ccc(Cl)cc2)c(C(F)(F)F)n1
melting point: 111 to 113 °C

CCCCCCc1ccc(O)cc1
melting point: 32 °C
